For three molecules, IC50 results are on record in patent US12331037B2, “Pyrimidines as EGFR-inhibitors and methods of treating disorders” (Dana-Farber Cancer Institute, Inc., priority 2014, dated 2025).

The term pIC50 denotes the IC50 on a negative log10 scale, so that one unit is a factor of ten.

One experiment has as its system Ba/F3 EGFR DEL/844V. Kind of experiment: Ba/F3 cell proliferation (MTS) assay. The experiment is classed as cell-based, murine. The note with it: Mus musculus.
For experiment [1], the system named is Ba/F3 EGFR DEL/T790M/L718Q. Kind of experiment: Ba/F3 cell proliferation (MTS) assay. The experiment is classed as cell-based, murine. The following applies: Mus musculus.
Experimental: (§1) Murine Ba/F3 cells are engineered to express mutant EGFR protein along with untransformed Ba/F3 cells and are used to performed single drug screens. Cell viability is assessed after 72 hours of compound i.e., compounds of Formula (I), exposure using the colorimetric cell proliferation MTS assay kit (Promega).
(§2) All cell lines were maintained in RPMI 1640 (Invitrogen, Carlsbad, CA) supplemented with 10% FBS 100 units/mL penicillin, 100 units/mL streptomycin, and 2 mM glutamine.
(§3) Ba/F3, NIH-3T3, cells were infected with retrovirus and PC9GR4 and HCC827 EPR cells infected with lentivirus according to standard protocols, as described previously (Engelman, J. A., et al., Proc Natl Acad Sci USA. 2005; 102:3788-93). Stable clones were obtained by selection in puromycin (2 μg/ml).
(§4) Growth and inhibition of growth was assessed by MTS assay and was performed according to previously established methods (Zhou, W., et al., Nature. 462, 2009, 1070-4; Ercan, D., et al., Cancer Discov. 934, 2012, 934-47). […] All experimental points were set up in six wells and all experiments were repeated at least three times. […] The curves were fitted using a non-linear regression model with a sigmoidal dose response.
A further experiment has as its system Ba/F3 EGFR DEL/L718Q. Kind of experiment: Ba/F3 cell proliferation (MTS) assay. It is filed as cell-based, murine. The following applies: Mus musculus.
A further experiment relates to Ba/F3 EGFR DEL/T790M. Description: Ba/F3 cell proliferation (MTS) assay. The note with it: Mus musculus. The experiment is classed as cell-based, murine.
The test system of a further experiment is Ba/F3 EGFR WT. Kind of experiment: Ba/F3 cell proliferation (MTS) assay. The experiment is classed as cell-based, murine. The following applies: Mus musculus.
Experiment [2] has as its system Ba/F3 EGFR L858R/T790M/L718Q. Description: Ba/F3 cell proliferation (MTS) assay. The experiment is classed as cell-based, murine. The following applies: Mus musculus.
Experimental: as §1, §2, §3, §4
The subject of the next experiment is Ba/F3 EGFR L718Q. Kind of experiment: cells. The following applies: Mus musculus, 72 h.
The next experiment has as its system Ba/F3 EGFR L858R/L718Q. Description: Ba/F3 cell proliferation (MTS) assay. It is filed as cell-based, murine. The following applies: Mus musculus.
For the next experiment, the system named is Ba/F3 EGFR DEL. Description: Ba/F3 cell proliferation (MTS) assay. The experiment is classed as cell-based, murine. The following applies: Mus musculus.
The next experiment concerns Ba/F3 EGFR L858R/T790M. Kind of experiment: Ba/F3 cell proliferation (MTS) assay. The following applies: Mus musculus. The experiment is classed as cell-based, murine.
The next experiment deals with Ba/F3 EGFR L858R. Description: Ba/F3 cell proliferation (MTS) assay. The note with it: Mus musculus. It is filed as cell-based, murine.
Setting [3] is: Ba/F3, EGFR DEL/844V, 72 hours, MTS, read-out: IC50.
The mark [4] stands for this setting: Ba/F3, EGFR DEL/T790M/L718Q, 72 hours, MTS, read-out: IC50.
The mark [5] stands for this setting: Ba/F3, EGFR DEL/L718Q, 72 hours, MTS, read-out: IC50.
Where [6] appears, read: Ba/F3, EGFR DEL/T790M, 72 hours, MTS, read-out: IC50.
The mark [7] stands for this setting: Ba/F3, EGFR WT, 72 hours, MTS, read-out: IC50.
Where [8] appears, read: Ba/F3, EGFR L858R/T790M/L718Q, 72 hours, MTS, read-out: IC50.
The mark [9] stands for this setting: Ba/F3, EGFR L858R/L718Q, 72 hours, MTS, read-out: IC50.
Where [10] appears, read: Ba/F3, EGFR DEL, 72 hours, MTS, read-out: IC50.
[11] abbreviates: Ba/F3, EGFR L858R/T790M, 72 hours, MTS, read-out: IC50.
[12] abbreviates: Ba/F3, EGFR L858R, 72 hours, MTS, read-out: IC50.

pIC50: −log10 of the molar value. Like-named read-outs stand apart in the source and are kept apart here.

Experimental for Ba/F3 EGFR DEL/844V: as §1, §2, §3, §4
Experimental for Ba/F3 EGFR DEL/L718Q: as §1, §2, §3, §4
Experimental for Ba/F3 EGFR L718Q: as §1, §2
The EGFR L718Q and L844V mutations were introduced via site directed mutagenesis using the Quick Change Site-Directed Mutagenesis kit (Stratagene; La Jolla, CA) according to the manufacturer's instructions. The L718Q mutation was generated using forward primer 5′-[sequence]-3′ (SEQ. ID. NO. 1) and reverse primer 5′ [sequence]-3′ (SEQ. ID. NO. 2). The L844V mutation was generated using forward primer 5′-[sequence]-3′ (SEQ. ID. NO. 3) and reverse primer 5′-[sequence]-3′ (SEQ. ID. NO. 4). All constructs were confirmed by DNA sequencing. The constructs were shuttled into the retroviral vector JP1540 or lentiviral vector JP1698 using the BD Creator™ System (BD Biosciences). […]
Growth and inhibition of growth was assessed by MTS assay and was performed according to previously established methods (Zhou, W., et al., Nature. 462, 2009, 1070-4; Ercan, D., et al., Cancer Discov. 934, 2012, 934-47). […]
Experimental for Ba/F3 EGFR L858R/L718Q: as §1, §2, §3, §4
Experimental for Ba/F3 EGFR WT: as §1
All experimental points were set up in six wells and all experiments were repeated at least three times. […] The curves were fitted using a non-linear regression model with a sigmoidal dose response.

With `C=CC(=O)Nc1cc(Nc2nccc(-c3cn(C)c4ccccc34)n2)c(OC)cc1N(C)CCN(C)C` [AZD9291], the pIC50 in the experiment on Ba/F3 EGFR DEL/844V (Ba/F3 EGFR, 72 h) was 7.82; in [1] (Ba/F3 EGFR, 72 h) it was 6.24; with Ba/F3 EGFR DEL/L718Q (Ba/F3 EGFR, 72 h), 7.26; with Ba/F3 EGFR DEL/T790M (Ba/F3 EGFR, 72 h), 8.00; in the experiment on Ba/F3 EGFR WT (Ba/F3 EGFR, 72 h) it was 7.64; in [2] (Ba/F3 EGFR, 72 h) it was 5.90. Moreover, the pIC50 with Ba/F3 EGFR L718Q was 5.90; in the experiment on Ba/F3 EGFR L858R/L718Q (Ba/F3 EGFR, 72 h), 5.93; with Ba/F3 EGFR DEL (Ba/F3 EGFR, 72 h) it was 8.75; in the experiment on Ba/F3 EGFR L858R/T790M (Ba/F3 EGFR, 72 h), 8.00; with Ba/F3 EGFR L858R (Ba/F3 EGFR-L858R, 72 h), 8.70.
Take `C=CC(=O)Nc1cc(Nc2nccc(-n3ccc4cccnc43)n2)c(OC)cc1N(C)CCN(C)C` [Compound I-1, N-(5-((4-(1H-pyrrolo[2,3-b]pyridin-1-yl)pyrimidin-2-yl)amino)-2-((2-(dimethylamino)ethyl)(methyl)amino)-4-methoxyphenyl)acrylamide]: the pIC50 was 7.27 with Ba/F3 EGFR DEL/844V (setting [3]); 6.19 in [1] (setting [4]); 6.75 with Ba/F3 EGFR DEL/L718Q (setting [5]); 7.19 in the experiment with Ba/F3 EGFR DEL/T790M (setting [6]); 6.49 with Ba/F3 EGFR WT (setting [7]); 5.71 in [2] (setting [8]). Further, the pIC50 in the experiment on Ba/F3 EGFR L858R/L718Q (setting [9]) was 5.69; with Ba/F3 EGFR DEL (setting [10]) it was 7.37; in the experiment with Ba/F3 EGFR L858R/T790M (setting [11]) it was 6.72; in the experiment on Ba/F3 EGFR L858R (setting [12]), 7.22.
Regarding `C=CC(=O)Nc1cccc(Oc2nc(Nc3ccc(N4CCN(C)CC4)cc3OC)ncc2Cl)c1` [WZ4002], the pIC50 in the experiment on Ba/F3 EGFR DEL/844V (setting [3]) was 6.02; in experiment [1] (setting [4]), 5.70; in the experiment with Ba/F3 EGFR DEL/L718Q (setting [5]), 5.83; in the experiment with Ba/F3 EGFR DEL/T790M (setting [6]), 7.72; in the experiment with Ba/F3 EGFR WT (setting [7]), 7.00; in experiment [2] (setting [8]) it was 5.65. Further, the pIC50 in the experiment with Ba/F3 EGFR L718Q is 5.54; with Ba/F3 EGFR L858R/L718Q (setting [9]) it was 5.56; in the experiment on Ba/F3 EGFR DEL (setting [10]) it was 8.08; in the experiment on Ba/F3 EGFR L858R/T790M (setting [11]) it was 7.85; in the experiment with Ba/F3 EGFR L858R (setting [12]), 8.17.
